# Source: patent US12102637B2, “Pharmaceutical formulations for treating endometriosis, uterine fibroids, polycystic ovary syndrome or adenomyosis” (AbbVie Inc., priority 2017, dated 2024)
# “Also recorded” adds a separate entry of the source.
# Experiments:
# [1] = molecular target: efflux transporter P-glycoprotein (P-gp) (Homo sapiens, UniProt P08183); assay: Elagolix as inhibitor and substrate of P-gp
# Experimental: Elagolix is an inhibitor of efflux transporter P-glycoprotein (P-gp) at 200 mg BID or higher, such as 300 mg BID or 400 mg QD or 600 mg QD. Co-administration with ELAGOLIX 200 mg BID may increase plasma concentration of drugs that are substrates of P-gp.
# (§1) Elagolix is a substrate of CYP3A, P-gp, and organic anion transporting polypeptide (OATP)1B1. Clinically meaningful interactions are not expected when elagolix is co-administered with drugs that inhibit CYP3A or P-gp.
# [2] = Pharmacokinetics in hepatic impairment; format: in vivo, human
# From the text: Elagolix exposures (Cmax and AUC) are similar between women with normal hepatic function and women with mild hepatic impairment. Elagolix exposures in women with moderate and severe hepatic impairment are approximately 3-fold and 7-fold, respectively, of exposures from women with normal hepatic function.
# Compared to women with normal liver function, those with moderate hepatic impairment had approximately 3-fold higher elagolix exposures and those with severe hepatic impairment had approximately 7-fold higher elagolix exposures. Because of these increased exposures and risk for bone loss: Elagolix 150 mg once daily is recommended for women with moderate hepatic impairment (Child-Pugh B) with the duration of treatment limited to 6 months. Use of elagolix 200 mg twice daily is not recommended for women with moderate hepatic impairment. Elagolix is contraindicated in women with severe hepatic impairment (Child-Pugh C).
# [3] = tested on: cytochrome P450 (CYP) 3A enzyme; assay: Elagolix as inducer and substrate of CYP3A
# From the text: Co-administration with elagolix may decrease plasma concentration of drugs that are substrates of CYP3A.
# as §1
# [4] = Lactation study in rats (elagolix in pup plasma); format: in vivo, rat
# Experimental: Pregnant rats were given diet containing elagolix throughout the gestation and lactation periods to achieve a daily elagolix dose of 400 mg/kg. During nursing the dams and litters were divided into restricted feeding and non-restricted groups to determine whether elagolix was secreted in the mother's milk. […] In pups of the non-restricted feeding group, elagolix plasma concentrations were measurable and approximately 1% of the mother's plasma concentrations.
# [5] = Pharmacokinetics in renal impairment; format: in vivo, human; conditions: moderate to severe or end stage renal disease vs normal renal function
# From the text: The mean exposures are similar for women with moderate to severe or end stage renal disease (including women on dialysis) compared to women with normal renal function.
# [6] = tested on: women treated in Studies EM-1 and EM-2; assay: Suicidal ideation, suicidal behavior and mood disorders in Studies EM-1 and EM-2; format: in vivo, human
# From the text: Patients with depressive symptoms should be evaluated to determine whether the risks of continued therapy outweigh the benefits. Patients with new or worsening depression, anxiety or other mood changes should be referred to a mental health professional, as appropriate. Patients with suicidal ideation and behavior should seek immediate medical attention. Benefits and risks of continuing elagolix should be revaluated if such events occur and optionally, elagolix should be stopped with worsening or serious depression, anxiety, mood changes or suicidal ideation.
# In the placebo-controlled trials (Studies EM-1 and EM-2), elagolix was associated with adverse mood changes, particularly in those with a history of depression.
# endometrium = assay: Endometrial biopsies in Study EM-I and its extension; format: in vivo, human; conditions: Month 6 and Month 12
# Experimental: Endometrial biopsies were performed in subjects in Study EM-I and its extension at Month 6 and Month 12.
# [7] = tested on: premenopausal women with HMB, uterine fibroids and adenomyosis; assay: Phase 2b trial in women with HMB and uterine fibroids, subgroup with non-dominant adenomyosis; format: in vivo, human
# Experimental: Patients and Methods: […] Elagolix studied in this clinical trial comprised the sodium salt of Compound A. All subjects were evaluated with ultrasound and a subset volunteered to also be evaluated by MRI. […] Efficacy and safety were evaluated post hoc in a subgroup of women who had confirmed non-dominant adenomyosis (ultrasound/MRI) at baseline. Menstrual blood loss (MBL) was quantified from sanitary products (alkaline hematin). […] Adverse events (AEs) were recorded.
# QTc interval = assay: Thorough QT study; format: in vivo, human; conditions: up to 1200 mg; 17- to 23-fold therapeutic concentrations; active control moxifloxacin 400 mg
# Experimental: The effect of elagolix (up to 1200 mg) on QTc interval was evaluated in an active-controlled (moxifloxacin 400 mg) thorough QT study.
# rats = assay: Fertility and repeat-dose studies in rats; format: in vivo, rat
# From the text: Based on pharmacologic actions of elagolix in humans a reversible effect on fertility may be expected in women.
# mice = assay: 2-year carcinogenicity study in mice; format: in vivo; conditions: mouse, any dose
# Sequence of efflux transporter P-glycoprotein (P-gp) (P08183 whole entry): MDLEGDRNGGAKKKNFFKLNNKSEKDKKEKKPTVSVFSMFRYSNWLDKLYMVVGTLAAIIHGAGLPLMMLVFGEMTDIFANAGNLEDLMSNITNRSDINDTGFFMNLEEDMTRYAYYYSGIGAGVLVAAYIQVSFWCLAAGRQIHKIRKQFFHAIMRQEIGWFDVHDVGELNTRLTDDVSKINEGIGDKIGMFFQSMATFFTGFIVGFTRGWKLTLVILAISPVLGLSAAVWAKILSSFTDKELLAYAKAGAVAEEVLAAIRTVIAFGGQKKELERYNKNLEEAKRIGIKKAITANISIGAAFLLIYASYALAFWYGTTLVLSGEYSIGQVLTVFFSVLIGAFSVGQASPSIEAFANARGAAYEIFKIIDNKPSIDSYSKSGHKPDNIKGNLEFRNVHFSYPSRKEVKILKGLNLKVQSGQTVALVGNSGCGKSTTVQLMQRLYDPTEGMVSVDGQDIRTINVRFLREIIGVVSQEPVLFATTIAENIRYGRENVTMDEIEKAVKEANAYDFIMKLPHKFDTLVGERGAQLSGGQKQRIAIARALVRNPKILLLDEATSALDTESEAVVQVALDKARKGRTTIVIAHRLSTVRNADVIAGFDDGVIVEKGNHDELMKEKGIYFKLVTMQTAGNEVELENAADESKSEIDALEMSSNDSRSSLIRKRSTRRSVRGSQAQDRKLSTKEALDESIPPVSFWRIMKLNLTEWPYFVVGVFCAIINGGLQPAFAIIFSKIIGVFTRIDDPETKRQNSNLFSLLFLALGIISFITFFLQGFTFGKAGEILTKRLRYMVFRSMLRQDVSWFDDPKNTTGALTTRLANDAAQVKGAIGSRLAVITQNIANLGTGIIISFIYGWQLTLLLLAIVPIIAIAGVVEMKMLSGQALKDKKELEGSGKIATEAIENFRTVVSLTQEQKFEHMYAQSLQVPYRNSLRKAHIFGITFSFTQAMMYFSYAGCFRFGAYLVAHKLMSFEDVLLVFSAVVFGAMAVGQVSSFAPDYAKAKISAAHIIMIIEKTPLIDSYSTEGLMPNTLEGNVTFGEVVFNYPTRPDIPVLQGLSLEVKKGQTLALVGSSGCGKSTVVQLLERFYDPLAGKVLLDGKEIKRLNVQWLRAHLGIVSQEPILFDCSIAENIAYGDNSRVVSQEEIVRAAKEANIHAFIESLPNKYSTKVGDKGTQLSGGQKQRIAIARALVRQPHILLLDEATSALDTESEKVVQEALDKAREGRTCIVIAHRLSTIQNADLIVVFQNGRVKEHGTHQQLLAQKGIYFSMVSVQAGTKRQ
compound,measurement,setting,value
"COc1cccc(-c2c(C)n(Cc3c(F)cccc3C(F)(F)F)c(=O)n(C[C@H](NCCCC(=O)O)c3ccccc3)c2=O)c1F [Compound A, 4-((R)-2-[5-(2-fluoro-3-methoxy-phenyl)-3-(2-fluoro-6-trifluoromethyl-benzyl)-4-methyl-2,6-dioxo-3,6-dihydro-2H-pyrimidin-1-yl]-1-phenyl-ethylamino)-butyric acid]",substrate of P-gp,[1],substrate
same,inhibition of efflux transporter P-glycoprotein (P-gp),[1]; at 200 mg BID or higher,inhibitor
same,exposures (Cmax and AUC) vs normal hepatic function,[2]; mild hepatic impairment,similar
same,exposures vs normal hepatic function,[2]; moderate hepatic impairment,approximately 3 fold
same,exposures vs normal hepatic function,"[2]; severe hepatic impairment, listed as Elagolix",~7 fold
same,exposures vs normal hepatic function,"[2]; severe hepatic impairment, listed as elagolix",approximately 7 fold
same,induction of cytochrome P450 (CYP) 3A enzyme,[3],weak to moderate inducer
same,substrate of CYP3A,[3],substrate
same,"elagolix plasma concentrations in pups, % of the mother's plasma concentrations","[4]; dams 400 mg/kg daily in diet, non-restricted feeding group",approximately 1%
same,elagolix plasma concentrations in pups,"[4]; dams 400 mg/kg daily in diet, restricted feeding litters, post natal day 10 and 20",not measurable
same,secretion in milk,[4]; listed as elagolix,secreted minimally via milk; also recorded: minimally secreted in milk
same,exposures (Cmax and AUC) in renal impairment,[5],not altered by renal impairment
same,"Completed Suicide, %",[6]; 150 mg Once Daily (N = 475),0.2%
same,"Depressed Mood, depression, depressive symptoms and or tearfulness, %",[6]; 150 mg Once Daily (N = 475),2.7%
same,"Mood altered, mood swings, %",[6]; 150 mg Once Daily (N = 475),5.7%
same,"Suicidal ideation, %",[6]; 150 mg Once Daily (N = 475),0.2%
same,"Depressed Mood, depression, depressive symptoms and or tearfulness, %",[6]; 200 mg Twice Daily (N = 477),6.1%
same,"Mood altered, mood swings, %",[6]; 200 mg Twice Daily (N = 477),5.2%
same,"Suicidal ideation, %",[6]; 200 mg Twice Daily (N = 477),0.2%
same,incidence of depression and mood changes,[6]; vs placebo,higher incidence of depression and mood changes compared to placebo
same,endometrial biopsy findings,endometrium,no abnormal biopsy findings post-baseline
same,proportion of women with ≥50% reduction from baseline in HMB and <80 mL MBL in the last 28 days of treatment,"[7]; Cohort 1, elagolix 300 mg BID with 0.5 mg E2/0.1 mg NETA (n=12)",83%
same,proportion of women with ≥50% reduction from baseline in HMB and <80 mL MBL in the last 28 days of treatment,"[7]; Cohort 1, elagolix 300 mg BID with 1.0 mg E2/0.5 mg NETA (n=5)",100%
same,proportion of women with ≥50% reduction from baseline in HMB and <80 mL MBL in the last 28 days of treatment,"[7]; Cohort 2, elagolix 600 mg QD with 0.5 mg E2/0.1 mg NETA (n=14)",93%
same,proportion of women with ≥50% reduction from baseline in HMB and <80 mL MBL in the last 28 days of treatment,"[7]; Cohort 2, elagolix 600 mg QD with 1.0 mg E2/0.5 mg NETA (n=9)",89%
same,"At least 1 AE, related or unrelated to study drug",[7]; elagolix-treated groups (n=22) in Cohort 1,77%
same,"At least 1 AE, related or unrelated to study drug",[7]; elagolix-treated groups (n=38) in Cohort 2,67%
same,Effect on QTc interval,QTc interval,does not prolong the QTc interval
same,effect in fertility study,"rats; doses 50, 150, 300 mg/kg/day",no effect
same,ovarian findings in repeat-dose study,"rats; doses 600, 800 mg/kg/day",involution and a decrease in corpora lutea in ovaries
same,"tumors, 2-year carcinogenicity study",mice,no increase in tumors
